Values after ≈ are worked out from the molar mass of the structure shown. Active and inactive are the calls of the source. No cut-off for these calls is given here.
Assays:
Cyberlindnera jadinii = experiment: Antifungal activity against Candida utilis ATCC 9950 after 24 hrs by micro broth dilution assay; assay type: functional; conditions: Williopsis jadinii, ATCC 9950, 24 h
Micrococcus luteus = experiment: Antibacterial activity against Micrococcus luteus ATCC 4698 after 24 hrs by micro broth dilution assay; assay type: functional; conditions: ATCC 4698, 24 h
Staphylococcus aureus [1] = experiment: Antibacterial activity against Staphylococcus aureus ATCC 25923 after 24 hrs by micro broth dilution assay; assay type: functional; conditions: ATCC 25923, 24 h
Aspergillus flavus [2] = experiment: Antifungal activity against Aspergillus flavus ATCC 204304 after 24 hrs by micro broth dilution assay; assay type: functional; conditions: ATCC 204304, 24 h
Staphylococcus aureus [3] = experiment: Antibacterial activity against methicillin-resistant Staphylococcus aureus N315 after 24 hrs by micro broth dilution assay; assay type: functional; conditions: N315, 24 h
Candida = experiment: Antifungal activity against Candida mycoderma ATCC 9888 after 24 hrs by micro broth dilution assay; assay type: functional; conditions: ATCC 9888, 24 h
[4] = Antibacterial activity against Eberthella typhosa ATCC 14028 after 24 hrs by micro broth dilution assay; assay type: functional; conditions: ATCC 14028, 24 h
Saccharomyces cerevisiae = experiment: Antifungal activity against Beer yeast ATCC 9763 after 24 hrs by micro broth dilution assay; assay type: functional; conditions: ATCC 9763, 24 h
Aspergillus flavus [5] = experiment: Ratio of fluconazole MIC to compound MIC for Aspergillus flavus ATCC 204304; assay type: functional
Bacillus spizizenii [6] = experiment: Antibacterial activity against Bacillus subtilis ATCC 6633 after 24 hrs by micro broth dilution assay; assay type: functional; conditions: ATCC 6633, 24 h
Escherichia coli = experiment: Antibacterial activity against Escherichia coli DH52 after 24 hrs by micro broth dilution assay; assay type: functional; conditions: DH52, 24 h
Candida albicans = experiment: Antifungal activity against Candida albicans ATCC 10231 after 24 hrs by micro broth dilution assay; assay type: functional; conditions: ATCC 10231, 24 h
Bacillus sp. = experiment: Antibacterial activity against Bacillus proteus ATCC 13315 after 24 hrs by micro broth dilution assay; assay type: functional; conditions: Bacillus sp. (in: firmicutes), ATCC 13315, 24 h
Pseudomonas aeruginosa = experiment: Antibacterial activity against Pseudomonas aeruginosa ATCC 27853 a after 24 hrs by micro broth dilution assay; assay type: functional; conditions: ATCC 27853, 24 h
Bacillus spizizenii [7] = experiment: Ratio of chloromycin MIC to compound MIC for Bacillus subtilis ATCC 6633; assay type: functional
Calf thymus DNA [8] = experiment: Competitive binding affinity to calf thymus DNA using neutral red up to 2.0 x 10^-5 mol/L by UV-visible absorption spectroscopy; assay type: nucleic-acid assay; conditions: Bos taurus
Albumin = Albumin (Homo sapiens, UniProt P02768); experiment: Binding affinity to human serum albumin assessed as fluorescence quenching at 10^-5 mol/L by fluorescence spectroscopy analysis; assay type: ADME; conditions: isolated protein, 10 µM
Calf thymus DNA [9] = experiment: Binding affinity to calf thymus DNA by UV-visible absorption spectroscopy; assay type: nucleic-acid assay; conditions: Bos taurus

Chain of Albumin (P02768 whole entry): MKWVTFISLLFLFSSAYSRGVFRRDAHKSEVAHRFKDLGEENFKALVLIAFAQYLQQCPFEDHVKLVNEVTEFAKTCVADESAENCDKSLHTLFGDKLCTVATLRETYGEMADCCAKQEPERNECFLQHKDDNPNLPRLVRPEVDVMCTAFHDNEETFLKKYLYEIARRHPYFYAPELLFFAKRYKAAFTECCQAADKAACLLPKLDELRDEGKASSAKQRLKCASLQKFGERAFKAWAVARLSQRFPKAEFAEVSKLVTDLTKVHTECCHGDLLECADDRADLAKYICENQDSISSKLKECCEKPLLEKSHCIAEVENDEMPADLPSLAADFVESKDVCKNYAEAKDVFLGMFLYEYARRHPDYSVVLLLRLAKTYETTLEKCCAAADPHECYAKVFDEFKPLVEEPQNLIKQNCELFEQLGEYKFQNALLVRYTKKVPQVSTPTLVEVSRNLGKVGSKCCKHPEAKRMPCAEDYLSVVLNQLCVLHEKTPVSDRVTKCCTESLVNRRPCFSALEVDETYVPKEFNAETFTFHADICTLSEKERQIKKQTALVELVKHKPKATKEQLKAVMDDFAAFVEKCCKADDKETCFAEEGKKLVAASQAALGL

| Structure (SMILES) | MIC (Cyberlindnera jadinii) [µM] | MIC (Micrococcus luteus) [µM] | MIC (Staphylococcus aureus [1]) [µM] | MIC (Aspergillus flavus [2]) [µM] | MIC (Staphylococcus aureus [3]) [µM] | MIC (Candida) [µM] | MIC [4] [µM] | MIC (Saccharomyces cerevisiae) [µM] | Ratio (Aspergillus flavus [5]) | MIC (Bacillus spizizenii [6]) [µM] | MIC (Escherichia coli) [µM] | MIC (Candida albicans) [µM] | MIC (Bacillus sp.) [µM] | MIC (Pseudomonas aeruginosa) [µM] | Ratio (Bacillus spizizenii [7]) | Activity (Calf thymus DNA [8]) | Kq (Albumin) [×10¹² L/mol/s] | K (Calf thymus DNA [9]) [×10⁴ L/mol] |
| --- | --- | --- | --- | --- | --- | --- | --- | --- | --- | --- | --- | --- | --- | --- | --- | --- | --- | --- |
| Cc1ncc([N+](=O)[O-])n1CCCCCCn1cnc2cc(F)ccc2c1=O | 20 (≈ 7.47 µg/mL) | 40 (≈ 14.9 µg/mL) | 40 (≈ 14.9 µg/mL) | 10 (≈ 3.73 µg/mL) | 40 (≈ 14.9 µg/mL) | 20 (≈ 7.47 µg/mL) | 20 (≈ 7.47 µg/mL) | 40 (≈ 14.9 µg/mL) | 84 | 20 (≈ 7.47 µg/mL) | 40 (≈ 14.9 µg/mL) | 20 (≈ 7.47 µg/mL) | 40 (≈ 14.9 µg/mL) | > 1370 |  |  |  |  |
| O=c1c2ccc(F)cc2ncn1CCCCCCCCCCn1cnc([N+](=O)[O-])c1 | 150 (≈ 62.3 µg/mL) | 40 (≈ 16.6 µg/mL) | 310 (≈ 129 µg/mL) | 150 (≈ 62.3 µg/mL) | 150 (≈ 62.3 µg/mL) | 40 (≈ 16.6 µg/mL) | 310 (≈ 129 µg/mL) | 80 (≈ 33.2 µg/mL) |  | 20 (≈ 8.31 µg/mL) | 150 (≈ 62.3 µg/mL) | 40 (≈ 16.6 µg/mL) | 80 (≈ 33.2 µg/mL) | 80 (≈ 33.2 µg/mL) | 5 |  |  |  |
| Cc1ncc([N+](=O)[O-])n1CCCCCCCCCCn1cnc2cc(F)ccc2c1=O | 20 (≈ 8.59 µg/mL) | 40 (≈ 17.2 µg/mL) | 20 (≈ 8.59 µg/mL) | 40 (≈ 17.2 µg/mL) | 20 (≈ 8.59 µg/mL) | 20 (≈ 8.59 µg/mL) | 20 (≈ 8.59 µg/mL) | 20 (≈ 8.59 µg/mL) |  | 20 (≈ 8.59 µg/mL) | 20 (≈ 8.59 µg/mL) | 40 (≈ 17.2 µg/mL) | 20 (≈ 8.59 µg/mL) | > 1190 |  |  |  |  |
| O=c1c2ccc(F)cc2ncn1CCCCCCn1cnc([N+](=O)[O-])c1 | 360 (≈ 129 µg/mL) | 40 (≈ 14.4 µg/mL) | 360 (≈ 129 µg/mL) | 180 (≈ 64.7 µg/mL) | 180 (≈ 64.7 µg/mL) | 40 (≈ 14.4 µg/mL) | 360 (≈ 129 µg/mL) | 90 (≈ 32.3 µg/mL) |  | 20 (≈ 7.19 µg/mL) | 180 (≈ 64.7 µg/mL) | 40 (≈ 14.4 µg/mL) | 90 (≈ 32.3 µg/mL) | 360 (≈ 129 µg/mL) | 5 |  |  |  |
| O=c1c2ccc(F)cc2ncn1CCCCCn1cnc([N+](=O)[O-])c1 | 370 (≈ 128 µg/mL) | 50 (≈ 17.3 µg/mL) | 190 (≈ 65.6 µg/mL) | 740 (≈ 256 µg/mL) | 190 (≈ 65.6 µg/mL) | 190 (≈ 65.6 µg/mL) | 370 (≈ 128 µg/mL) | 90 (≈ 31.1 µg/mL) |  | 20 (≈ 6.91 µg/mL) | 370 (≈ 128 µg/mL) | 90 (≈ 31.1 µg/mL) | 370 (≈ 128 µg/mL) | 370 (≈ 128 µg/mL) | 5 |  |  |  |
| Cc1ncc([N+](=O)[O-])n1CCn1cnc2cc(F)ccc2c1=O | 30 (≈ 9.52 µg/mL) | 50 (≈ 15.9 µg/mL) | 30 (≈ 9.52 µg/mL) | 30 (≈ 9.52 µg/mL) | 30 (≈ 9.52 µg/mL) | 30 (≈ 9.52 µg/mL) | 30 (≈ 9.52 µg/mL) | 30 (≈ 9.52 µg/mL) |  | 30 (≈ 9.52 µg/mL) | 30 (≈ 9.52 µg/mL) | 30 (≈ 9.52 µg/mL) | 50 (≈ 15.9 µg/mL) | > 1610 |  | Active | 0.1 | 1.41 |
| O=c1c2ccc(Cl)cc2ncn1CCCCCn1cnc([N+](=O)[O-])c1 | 350 (≈ 127 µg/mL) | 40 (≈ 14.5 µg/mL) | 180 (≈ 65.1 µg/mL) | 710 (≈ 257 µg/mL) | 180 (≈ 65.1 µg/mL) | 180 (≈ 65.1 µg/mL) | 350 (≈ 127 µg/mL) | 90 (≈ 32.6 µg/mL) |  | 40 (≈ 14.5 µg/mL) | 350 (≈ 127 µg/mL) | 90 (≈ 32.6 µg/mL) | 350 (≈ 127 µg/mL) | 350 (≈ 127 µg/mL) |  |  |  |  |
| O=c1c2ccc(Cl)cc2ncn1CCBr | 890 (≈ 256 µg/mL) | 450 (≈ 129 µg/mL) | > 1780 | > 1780 | 890 (≈ 256 µg/mL) | > 1780 | > 1780 | 890 (≈ 256 µg/mL) |  | 1780 (≈ 512 µg/mL) | 1780 (≈ 512 µg/mL) | > 1780 | 890 (≈ 256 µg/mL) | > 1780 |  |  |  |  |
| Cc1ncc([N+](=O)[O-])n1CCn1cnc2cc(Cl)ccc2c1=O | 50 (≈ 16.7 µg/mL) | 100 (≈ 33.4 µg/mL) | 100 (≈ 33.4 µg/mL) | 20 (≈ 6.67 µg/mL) | 50 (≈ 16.7 µg/mL) | 50 (≈ 16.7 µg/mL) | 20 (≈ 6.67 µg/mL) | 50 (≈ 16.7 µg/mL) |  | 50 (≈ 16.7 µg/mL) | 100 (≈ 33.4 µg/mL) | 50 (≈ 16.7 µg/mL) | 50 (≈ 16.7 µg/mL) | > 1530 |  |  |  |  |
| Cc1ncc([N+](=O)[O-])n1CCCCCn1cnc2cc(Cl)ccc2c1=O | 20 (≈ 7.52 µg/mL) | 40 (≈ 15 µg/mL) | 40 (≈ 15 µg/mL) | 20 (≈ 7.52 µg/mL) | 20 (≈ 7.52 µg/mL) | 20 (≈ 7.52 µg/mL) | 20 (≈ 7.52 µg/mL) | 40 (≈ 15 µg/mL) |  | 20 (≈ 7.52 µg/mL) | 20 (≈ 7.52 µg/mL) | 20 (≈ 7.52 µg/mL) | 20 (≈ 7.52 µg/mL) | > 1360 |  |  |  |  |
| Cc1ncc([N+](=O)[O-])n1CCCCn1cnc2cc(Cl)ccc2c1=O | 20 (≈ 7.24 µg/mL) | 40 (≈ 14.5 µg/mL) | 40 (≈ 14.5 µg/mL) | 40 (≈ 14.5 µg/mL) | 20 (≈ 7.24 µg/mL) | 40 (≈ 14.5 µg/mL) | 20 (≈ 7.24 µg/mL) | 40 (≈ 14.5 µg/mL) |  | 40 (≈ 14.5 µg/mL) | 40 (≈ 14.5 µg/mL) | 20 (≈ 7.24 µg/mL) | 20 (≈ 7.24 µg/mL) | > 1420 |  |  |  |  |
| O=c1c2ccc(F)cc2ncn1CCCCCBr | 410 (≈ 128 µg/mL) | 410 (≈ 128 µg/mL) | > 1630 | 820 (≈ 257 µg/mL) | 820 (≈ 257 µg/mL) | > 1630 | > 1630 | 820 (≈ 257 µg/mL) |  | 1630 (≈ 510 µg/mL) | 1630 (≈ 510 µg/mL) | 820 (≈ 257 µg/mL) | 410 (≈ 128 µg/mL) | > 1630 |  |  |  |  |
